Series [1] deals with STAT3-DNA binding activity in MDA-MB-468 and A-549 cells. The series is described as follows: STAT3-DNA binding filter plate assay on nuclear extracts. Format: cell-based, human. To be noted: 1, 2 or 4 hours. The protocol: Nuclear extract preparation was carried out as described in Yu, et al., Science 1995; 269(5220):81-83. The STAT3-DNA binding filter plate assay was performed following the manual of the filter plate assay kit (Signosis, Sunnyvale, Calif.), as described for NFkB (Ying, et al., Blood 2011; 117(4):1301-1307). The TF Binding buffer was mixed with the STAT3 probe (biotin labeled STAT3 DNA binding sequence) and nuclear extract and incubated at 16° C. for 30 minutes to form the STAT3-DNA complex. The STAT3-DNA complex was then separated from free probe by using a filter plate. After several steps of binding and washing, bound STAT3 probe is retained on the filter in the corresponding well of Filer Plate and the free DNA probe is removed. The bound pre-labeled STAT3 probe was then eluted from the filter plate by centrifuge with elution buffer. Eluted probes were then hybridized into 96-well Hybridization Plate for quantitative analysis. The captured STAT3 probe was further detected by conjugation with streptavidin-HRP. The chemiluminescence of each well was detected by 2104 EnVisionR Multilabel Reader of PerkinElmer (Pekin Elmer, Waltham, Mass., USA) within 5 minutes after mixture with substrates. […]

For series [2], the system named is P-STAT3 in the nucleus of MDA-MB-468 cells. The series is described as follows: P-STAT3 nuclear accumulation by immunofluorescence. The class given is cell-based, human. To be noted: 18 hours, various concentrations.
Description: MDA-MB-468 cells were plated at 4000 cells/well in 8-chamber slide. […] Cells were fixed, washed, and permeabilized as describe above. Specimens were then blocked in 1% bovine serum albumin (BSA) for 30 min and incubated with anti-pSTAT3 (Cell Signaling), antibody at 1:50 dilution at 4° C. overnight. Subsequently, cells were rinsed 4-5 times in PBS, incubated with Alexa Fluor secondary antibody for 1 hour at room temperature in the dark. Specimens were then washed 5 times with PBS, covered with cover slides with [sequence] mounting medium containing DAPI (Vector Lab, Inc., Burlingame, Calif.), and examined immediately under Zeiss Upright Fluorescence Microscope (Zeiss, Thornwood, N.Y., USA).
The target of series [3] is binding of FLAG-STAT3 to HA-STAT3 (Mus musculus, UniProt P42227). The series is described as follows: co-immunoprecipitation of FLAG-STAT3 with HA-STAT3 in HEK293 cells. Format: cell-based, human. To be noted: HEK293 cells co-expressing FLAG- and HA-STAT3; treated 4 h. The procedure: HEK-293/FLAG-STAT3/HA-STAT3 cells were treated for 4 h with vehicle, S3I-1757, S3I-1756, Ac-G{pTYR}LPQTV-[…]-NH2 (SEQ ID NO:3) or Ac-GYLPQTV-[…]-NH2 (SEQ ID NO:4) and then lysed in 20 mM Tris-HCl (pH 7.4), 5 mM EDTA, 10 mM Na4P2O7, 100 mM NaF, 2 mM Na3VO4, 1% NP-40.1 mM PMSF and 10 mg/ml aprotinin. For EGF stimulation group, HEK-293/FLAG-STAT3/HASTAT3 cells were treated by 100 ng/ml EGF for 30 minutes before making cell lysate. Protein A or G agarose (EMD Millipore, Billerica, Mass., USA) was washed twice with PBS and restore to 50% slurry with PBS. 500 μg of lysate were pre-cleared by mixture of protein A and protein G-agarose for 1 h at 4° C. and then remove protein A and G-agarose by centrifuge at 1300 rpm for 3 minutes. And then 500 μg of lysate was immunoprecipitated with 50 ng of HA antibody overnight at 4° C. on shaker and then capture the immunocomplex by adding 100 μl Protein A and G agarose/sepharose bead slurry for 1 hour at 4° C. Samples were washed five times with lysis buffer and then boiled in 5×SDS-PAGE sample buffer and run on SDS-PAGE gel. Protein was transferred to nitrocellulose membrane and then blotted as described above for HA, FLAG, pSTAT3, EGFR, and STAT3.
binding of FLAG-STAT3 to HA-STAT3, sequence (P42227 whole entry): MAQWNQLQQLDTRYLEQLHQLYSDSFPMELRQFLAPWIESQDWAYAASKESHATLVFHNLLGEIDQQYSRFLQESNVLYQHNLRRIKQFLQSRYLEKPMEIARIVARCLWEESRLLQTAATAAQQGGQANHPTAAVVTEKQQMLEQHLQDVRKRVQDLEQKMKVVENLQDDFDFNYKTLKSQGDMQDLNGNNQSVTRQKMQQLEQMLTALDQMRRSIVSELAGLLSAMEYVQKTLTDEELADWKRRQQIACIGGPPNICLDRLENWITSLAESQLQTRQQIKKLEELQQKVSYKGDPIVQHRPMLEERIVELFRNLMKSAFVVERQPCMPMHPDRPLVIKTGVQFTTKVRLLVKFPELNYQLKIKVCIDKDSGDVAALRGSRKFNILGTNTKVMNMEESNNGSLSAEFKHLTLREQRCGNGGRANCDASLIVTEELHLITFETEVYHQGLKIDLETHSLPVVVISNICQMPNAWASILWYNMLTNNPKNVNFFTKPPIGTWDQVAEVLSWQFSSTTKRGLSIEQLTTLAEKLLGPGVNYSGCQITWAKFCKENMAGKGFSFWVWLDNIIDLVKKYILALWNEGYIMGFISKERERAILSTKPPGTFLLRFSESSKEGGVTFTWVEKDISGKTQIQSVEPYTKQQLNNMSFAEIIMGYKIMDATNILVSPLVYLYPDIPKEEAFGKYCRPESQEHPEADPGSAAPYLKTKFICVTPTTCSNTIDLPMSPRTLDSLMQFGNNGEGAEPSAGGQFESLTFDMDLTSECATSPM
However, the FP assay only measured the ability of S3I-1757 to displace the 7 amino acid fluorescein-labelled GpYLPQTV phosphotyrosine peptide from the SH2 domain of STAT3 protein in vitro. Therefore, it was determined if the intracellular reciprocal binding of 2 full-length STAT3 proteins is inhibited. To this end, an assay was developed to measure directly STAT3-STAT3 dimerization in intact cells by cloning HA-tagged STAT3 and FLAG-tagged STAT3, generating HEK293 cells that stably co-express HA-STAT3 and FLAG-STAT3 and using these cells for coimmunoprecipitation and co-localization. […] This assay was validated by treating the FLAG-STAT3/HA-STAT3 HEK293 cells with tyrosine phosphorylated or nonphosphorylated GYLPQTV peptide fused to a membrane-translocating sequence (MTS) to allow cell uptake. […]

In series [4] the test system is human breast and liver cancer xenografts. To be noted: human breast and liver cancer xenografts in mouse models; cited from earlier work. (In general: Xenograft models place foreign cells or tissue in a host animal.)

We go through 7 molecules from patent publication US10954258B2, “STAT3 dimerization inhibitors” (H. LEE MOFFITT CANCER CENTER AND RESEARCH INSTITUTE, INC., priority 2012, dated 2021).

As a reminder, the melting point is the temperature, or range, at which the solid turns liquid.

[ ]: non-standard residue; d: D form. pY = N[C@@H](Cc1ccc(OP(=O)(O)O)cc1)C(=O)O

For the molecule `O=C(c1ccc(Oc2ccccc2)cc1)N(Cc1ccc(C2CCCCC2)cc1)c1ccc(P(=O)(O)O)cc1` [Compound 17a, 4-(N-(4-Cyclohexylbenzyl)-4-phenoxybenzamido)phenylphosphonic acid], the melting point was 182.7 °C (dec.).

With `O=C(c1ccc(Oc2ccccc2)cc1)N(Cc1ccc(C2CCCCC2)cc1)c1ccc(CP(=O)(O)O)cc1` [Compound 17c, 4-(N-(4-Cyclohexylbenzyl)-4-phenoxybenzamido)benzylphosphonic acid], the melting point is 188 °C (dec.).

Regarding `O=C(c1ccc(Oc2ccccc2)cc1)N(Cc1ccc(C2CCCCC2)cc1)c1cccc(CP(=O)(O)O)c1` [Compound 17d, 3-(N-(4-Cyclohexylbenzyl)-4-phenoxybenzamido)benzylphosphonic acid], the melting point was 97 °C (dec.).

As for `O=C(Nc1ccc(CP(=O)(O)O)cc1)c1ccc(Oc2ccccc2)cc1` [Compound 18c, 4-(4-Phenoxybenzamido)benzylphosphonic acid], the melting point is > 250 °C.

As for `COc1ccc(CN(C(=O)c2ccc(Oc3ccccc3)cc2)c2ccc(O)c(C(=O)O)c2)cc1` [Compound 20b, 2-Hydroxy-5-(N-(4-methoxybenzyl)-4-phenoxybenzamido)benzoic acid], the “activated STAT3 in nuclear extracts capable of binding the STAT3 DNA binding probe” value in series [1] is reported as “did not decrease the amount of STAT3 capable of binding DNA”. Besides, the P-STAT3 nuclear accumulation entry in series [2] was “little effect with concentrations as high as 200 μM”. In addition, the “binding of FLAG-STAT3 to HA-STAT3 (co-immunoprecipitation)” value in series [3] is “did not inhibit this binding with concentrations as high as 200 μM”.

Take `Cc1ccc(S(=O)(=O)OCC(=O)Nc2ccc(C(=O)O)c(O)c2)cc1` [Compound S3I-201]: in series [4], the “antitumor effects in xenografts” value is “exert antitumor effects against human breast and liver cancer xenografts in mouse models”.

For “Ac-G{pTYR}LPQTV-AAVLLPVLLAAP-NH2 (Ac-G[pY]LPQTVAAVLLPVLLAAP-NH2; SMILES CC(=O)NCC(=O)N[C@@H](Cc1ccc(OP(=O)(O)O)cc1)C(=O)N[C@@H](CC(C)C)C(=O)N1CCC[C@H]1C(=O)N[C@@H](CCC(N)=O)C(=O)N[C@H](C(=O)N[C@H](C(=O)N[C@@H](C)C(=O)N[C@@H](C)C(=O)N[C@H](C(=O)N[C@@H](CC(C)C)C(=O)N[C@@H](CC(C)C)C(=O)N1CCC[C@H]1C(=O)N[C@H](C(=O)N[C@@H](CC(C)C)C(=O)N[C@@H](CC(C)C)C(=O)N[C@@H](C)C(=O)N[C@@H](C)C(=O)N1CCC[C@H]1C(N)=O)C(C)C)C(C)C)C(C)C)[C@@H](C)O) [P-Pep, reference compound]”, in series [3], the “binding of FLAG-STAT3 to HA-STAT3 (co-immunoprecipitation)” value is recorded as “inhibited FLAG-STAT3 from co-immunoprecipitating with HA-STAT3”.
